The target of the assay is T1, sGC α1/β1 heterodimer (Homo sapiens, UniProt Q02108+Q02153).
T1 construct: expressed in transfected cells; host or cells: CHO-K1 (clone #7, CHO-K1/sGC)
T1 sequence (Q02108 1-690): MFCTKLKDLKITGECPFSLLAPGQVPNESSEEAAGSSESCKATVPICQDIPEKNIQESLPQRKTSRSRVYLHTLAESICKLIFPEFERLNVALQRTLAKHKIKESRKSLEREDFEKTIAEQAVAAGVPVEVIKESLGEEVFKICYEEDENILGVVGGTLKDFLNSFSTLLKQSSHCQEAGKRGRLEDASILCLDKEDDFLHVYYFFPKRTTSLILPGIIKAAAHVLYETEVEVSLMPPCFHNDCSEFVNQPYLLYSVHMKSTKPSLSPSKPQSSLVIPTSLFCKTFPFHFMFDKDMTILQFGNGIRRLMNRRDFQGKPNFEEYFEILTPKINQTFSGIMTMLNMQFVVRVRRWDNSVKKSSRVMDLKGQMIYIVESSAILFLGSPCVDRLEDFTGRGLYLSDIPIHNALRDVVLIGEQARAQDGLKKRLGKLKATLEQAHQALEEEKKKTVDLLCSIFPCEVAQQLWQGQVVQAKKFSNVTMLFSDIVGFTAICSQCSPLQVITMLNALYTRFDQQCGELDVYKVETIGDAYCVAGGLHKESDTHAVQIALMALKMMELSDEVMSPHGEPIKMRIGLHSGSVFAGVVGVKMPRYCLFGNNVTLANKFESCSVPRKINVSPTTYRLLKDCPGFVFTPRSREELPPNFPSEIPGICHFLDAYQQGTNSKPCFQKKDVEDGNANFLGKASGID
T1 sequence (Q02153 1-619): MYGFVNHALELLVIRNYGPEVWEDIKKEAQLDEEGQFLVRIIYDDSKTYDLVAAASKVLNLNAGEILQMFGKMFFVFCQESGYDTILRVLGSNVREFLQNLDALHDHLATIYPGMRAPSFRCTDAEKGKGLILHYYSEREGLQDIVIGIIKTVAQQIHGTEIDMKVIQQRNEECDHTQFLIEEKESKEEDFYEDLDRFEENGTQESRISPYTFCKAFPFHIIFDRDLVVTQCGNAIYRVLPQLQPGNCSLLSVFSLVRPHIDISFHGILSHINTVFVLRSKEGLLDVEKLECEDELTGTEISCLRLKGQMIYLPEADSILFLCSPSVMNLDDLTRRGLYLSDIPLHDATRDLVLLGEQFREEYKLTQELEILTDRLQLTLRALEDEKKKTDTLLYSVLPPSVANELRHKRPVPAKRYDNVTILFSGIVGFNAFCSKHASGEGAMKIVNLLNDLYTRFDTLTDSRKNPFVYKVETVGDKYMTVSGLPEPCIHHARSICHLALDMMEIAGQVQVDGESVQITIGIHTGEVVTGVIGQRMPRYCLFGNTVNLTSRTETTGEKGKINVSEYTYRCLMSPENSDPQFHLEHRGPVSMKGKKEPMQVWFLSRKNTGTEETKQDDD
The assay is described as follows: Cell-based sGC functional assay (CASA assay): cGMP generation in CHO-K1/sGC cells, HTRF detection. Conditions: for Emax: CHO-K1, percent activation relative to standard Compound A in CHO-K1/sGC cells, read-out: % Act.; for EC50: inflection point (IP) of cGMP generation in CHO-K1/sGC cells, 4P fit, activity expressed as percentage of Compound A. A digest of the protocol: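 cGMP was quantified by HTRF after 1 hr, 37° C exposure of thawed CHO-K1 cells expressing sGC α1/β1 to compound, with or without 1 μM DETA-NO. IBMX (0.5 mM) blocked cGMP breakdown, and DMSO was 2.5% final. Percent of standard Compound A's maximal cGMP was fitted (4P) for inflection point.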

As usually defined, the EC50 is the midpoint of the concentration-response curve. As for `CC1(c2ccccc2)C(=O)Nc2nc(-c3cn4c(Cl)cnc4c(CCC(F)(F)C(F)(F)F)n3)nc(N)c21` (stereo not drawn) [Example 256B, 4-amino-2-(3-chloro-8-(3,3,4,4,4-pentafluorobutyl)imidazo [1,2-a]pyrazin-6-yl)-5-methyl-5-phenyl-5H-pyrrolo[2,3-d]pyrimidin-6(7H)-one], the Emax is 86% and the EC50 came to 0.024 µM.

For `CC1(C)C(=O)Nc2nc(-c3cn4c(Cl)cnc4c(CCC(F)(F)C(F)(F)F)n3)nc(N)c21` [Example 257, 4-amino-2-(3-chloro-8-(3,3,4,4,4-pentafluorobutyl)imidazo [1,2-a]pyrazin-6-yl)-5,5-dimethyl-5H-pyrrolo[2,3-d]pyrimidin-6(7H)-one], the Emax amounted to 146% and a half-maximal response (EC50) required 0.614 µM.

As to `CC1(c2ccc(F)cc2)C(=O)Nc2nc(-c3cn4c(Cl)cnc4c(CCC(F)(F)F)n3)nc(N)c21` (stereo not drawn) [Example 258A, 4-amino-2-(3-chloro-8-(3,3,3-trifluoropropyl)imidazo[1,2-a]pyrazin-6-yl)-5-(4-fluorophenyl)-5-methyl-5H-pyrrolo[2,3-d]pyrimidin-6(7H)-one], the Emax worked out at 116% and the EC50 was found to be 0.089 µM.

In the case of `CC1(c2ccccc2)C(=O)Nc2nc(-c3cn4c(Cl)cnc4c(CCC(F)(F)F)n3)nc(N)c21` (stereo not drawn) [Example 259B, 4-amino-2-(3-chloro-8-(3,3,3-trifluoropropyl)imidazo[1,2-a]pyrazin-6-yl)-5-methyl-5-phenyl-5H-pyrrolo[2,3-d]pyrimidin-6(7H)-one], the Emax worked out at 99% and a half-maximal effect (EC50) was put at 0.112 µM.

Regarding `CC1(c2ccc(F)cc2)C(=O)Nc2nc(-c3cn4c(Cc5ccccc5)cnc4c(CCC(F)(F)C(F)(F)F)n3)nc(N)c21` (stereo not drawn) [Example 260A, 4-Amino-2-(3-benzyl-8-(3,3,4,4,4-pentafluorobutyl)imidazo[1,2-a]pyrazin-6-yl)-5-(4-fluorophenyl)-5-methyl-5H-pyrrolo[2,3-d]pyrimidin-6(7H)-one], the Emax worked out at 90% and the concentration giving a half-maximal response (EC50) is 0.504 µM.

For the compound `CC1(c2ccc(F)cc2)C(=O)Nc2nc(-c3cn4c(CCC5CCCCC5)cnc4cn3)nc(N)c21` (stereo not drawn) [Example 261A, 4-Amino-2-(3-(2-cyclohexylethyl)imidazo[1,2-a]pyrazin-6-yl)-5-(4-fluorophenyl)-5-methyl-5H-pyrrolo[2,3-d]pyrimidin-6(7H)-one], the Emax was determined as 116% and a half-maximal effect (EC50) was put at 0.822 µM.

`CC1(c2ccc(F)cn2)C(=O)Nc2nc(-c3cn4c(Br)cnc4c(CCC(F)(F)C(F)(F)F)n3)nc(N)c21` (stereo not drawn) [Example 262B, 4-Amino-2-(3-bromo-8-(3,3,4,4,4-pentafluorobutyl)imidazo[1,2-a]pyrazin-6-yl)-5-(5-fluoropyridin-2-yl)-5-methyl-5H-pyrrolo[2,3-d]pyrimidin-6(7H)-one]: the Emax is 105% and a half-maximal response (EC50) required 0.236 µM.

Take `CC1(C)C(=O)Nc2nc(-c3cn4c(Br)cnc4c(CCC(F)(F)C(F)(F)F)n3)nc(N)c21` [Example 263, 4-amino-2-(3-bromo-8-(3,3,4,4,4-pentafluorobutyl)imidazo[1,2-a]pyrazin-6-yl)-5,5-dimethyl-5H-pyrrolo[2,3-d]pyrimidin-6(7H)-one]: the Emax stood at 20% and the EC50 came out at 0.314 µM.

Take `CC1(c2ccccc2)C(=O)Nc2nc(-c3cn4c(Br)cnc4c(CCC(F)(F)F)n3)nc(N)c21` (stereo not drawn) [Example 265B, 4-amino-2-(3-bromo-8-(3,3,3-trifluoropropyl)imidazo[1,2-a]pyrazin-6-yl)-5-methyl-5-phenyl-5H-pyrrolo[2,3-d]pyrimidin-6(7H)-one]: the Emax is 121% and the EC50 was 0.648 µM.

Consider `Cc1nc2c(CCC(F)(F)C(F)(F)F)nc(-c3nc(N)c4c(n3)NC(=O)C4(C)c3ccc(F)cc3)cn2c1Br` (stereo not drawn) [Example 266A, 4-amino-2-(3-bromo-2-methyl-8-(3,3,4,4,4-pentafluorobutyl)imidazo[1,2-a]pyrazin-6-yl)-5-(4-fluorophenyl)-5-methyl-5H-pyrrolo[2,3-d]pyrimidin-6(7H)-one], for which the Emax came out at 101% and the midpoint of the response, the EC50, lay at 0.141 µM.

As to `CC1(c2ccc(F)cc2)C(=O)Nc2nc(-c3cn4c(N)cnc4c(CCC(F)(F)C(F)(F)F)n3)nc(N)c21` (stereo not drawn) [Example 267A, 4-Amino-2-(3-amino-8-(3,3,4,4,4-pentafluorobutyl)imidazo[1,2-a]pyrazin-6-yl)-5-(4-fluorophenyl)-5-methyl-5H-pyrrolo[2,3-d]pyrimidin-6(7H)-one], the Emax stood at 91% and it took 0.212 µM to reach a half-maximal effect (EC50).

Take `CC1(c2ccc(F)cn2)C(=O)Nc2nc(-c3cn4c(N)cnc4c(CCC(F)(F)C(F)(F)F)n3)nc(N)c21` (stereo not drawn) [Example 268B, 4-Amino-2-(3-amino-8-(3,3,4,4,4-pentafluorobutyl)imidazo[1,2-a]pyrazin-6-yl)-5-(5-fluoropyridin-2-yl)-5-methyl-5H-pyrrolo[2,3-d]pyrimidin-6(7H)-one]: the Emax came to 79% and the midpoint of the response, the EC50, lay at 0.338 µM.

Take `CC1(c2ccc(Cl)cn2)C(=O)Nc2nc(-c3cn4c(N)cnc4c(CCC(F)(F)C(F)(F)F)n3)nc(N)c21` (stereo not drawn) [Example 269A, 4-amino-2-(3-amino-8-(3,3,4,4,4-pentafluorobutyl)imidazo[1,2-a]pyrazin-6-yl)-5-(5-chloropyridin-2-yl)-5-methyl-5H-pyrrolo[2,3-d]pyrimidin-6(7H)-one]: the Emax was found to be 198% and it took 5.09 µM to reach a half-maximal effect (EC50).

`CN(C)C(=O)c1cccc(C2(C)C(=O)Nc3nc(-c4cn5ccnc5c(CCC(F)(F)C(F)(F)F)n4)nc(N)c32)c1` (stereo not drawn) [Example 271B, 3-(4-Amino-5-methyl-6-oxo-2-(8-(3,3,4,4,4-pentafluorobutyl)imidazo[1,2-a]pyrazin-6-yl)-6,7-dihydro-5H-pyrrolo[2,3-d]pyrimidin-5-yl)-N,N-dimethylbenzamide]: the Emax was 95% and the EC50 was found to be 0.622 µM.

With `CC1(C)C(=O)Nc2nc(-c3cn4ccnc4c(Cc4cccc(C#N)c4)n3)nc(N)c21` [Example 272, 3-((6-(4-Amino-5,5-dimethyl-6-oxo-6,7-dihydro-5H-pyrrolo[2,3-d]pyrimidin-2-yl)imidazo[1,2-a]pyrazin-8-yl)methyl)benzonitrile], the Emax was 114% and the EC50 amounted to 0.367 µM.

For the compound `CC1(c2ccc(F)cc2)C(=O)Nc2nc(-c3cn4c(C#N)cnc4c(CCC(F)(F)C(F)(F)F)n3)nc(N)c21` (stereo not drawn) [Example 273A, 6-(4-Amino-5-(4-fluorophenyl)-5-methyl-6-oxo-6,7-dihydro-5H-pyrrolo[2,3-d]pyrimidin-2-yl)-8-(3,3,4,4,4-pentafluorobutyl)imidazo[1,2-3a]pyrazine-3-carbonitrile], the Emax came out at 81% and the EC50 came to 0.061 µM.

Turning to `Cc1nc2c(CCC(F)(F)C(F)(F)F)nc(-c3nc(N)c4c(n3)NC(=O)C4(C)c3ccc(F)cc3)cn2c1C#N` (stereo not drawn) [Example 274A, 6-(4-amino-5-(4-fluorophenyl)-5-methyl-6-oxo-6,7-dihydro-5H-pyrrolo[2,3-d]pyrimidin-2-yl)-2-methyl-8-(3,3,4,4,4-pentafluorobutyl)imidazo[1,2-a]pyrazine-3-carbonitrile], the Emax is 100% and the EC50 was determined as 0.238 µM.

For `CC1(c2ccc(F)cc2)C(=O)Nc2nc(-c3cn4cc(C#N)nc4c(CCC(F)(F)C(F)(F)F)n3)nc(N)c21` (stereo not drawn) [Example 275A, 6-(4-Amino-5-(4-fluorophenyl)-5-methyl-6-oxo-6,7-dihydro-5H-pyrrolo[2,3-d]pyrimidin-2-yl)-8-(3,3,4,4,4-pentafluorobutyl)imidazo[1,2-a]pyrazine-2-carbonitrile], the Emax turned out to be 98% and the EC50 was 0.089 µM.

For the origin of these results see US9796733B2, “Imidazo-pyrazine derivatives useful as soluble guanylate cyclase activators” (Merck Sharp & Dohme Corp., priority 2014, dated 2017).
